Data from ChEMBL document CHEMBL1125013, “Quinazoline antifolate thymidylate synthase inhibitors: 2'-fluoro-N10-propargyl-5,8-dideazafolic acid and derivatives with modifications in the C2 position” (J Med Chem, 1990).

Legend:
L1210 (R7A) = experiment: Concentration required to inhibit 50% growth of L1210 of R7A mutant mouse leukemia cell line was determined; format: functional, cell-based
Thymidylate synthase = Thymidylate synthase (Mus musculus, UniProt P07607); experiment: Concentration required to inhibit 50% activity of Thymidylate synthase was determined
Thymidylate synthase, sequence (P07607 whole entry): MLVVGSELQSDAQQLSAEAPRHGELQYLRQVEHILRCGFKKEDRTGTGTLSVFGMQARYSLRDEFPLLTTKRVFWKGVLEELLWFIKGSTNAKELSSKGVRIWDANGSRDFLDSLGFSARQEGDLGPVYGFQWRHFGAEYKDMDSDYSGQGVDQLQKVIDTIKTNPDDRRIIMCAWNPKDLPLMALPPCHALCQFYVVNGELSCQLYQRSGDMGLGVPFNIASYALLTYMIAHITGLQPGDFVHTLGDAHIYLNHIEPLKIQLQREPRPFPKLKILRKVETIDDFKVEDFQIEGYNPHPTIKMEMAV

L1210 [1] = experiment: The inhibitory activity was determined on L1210 mouse leukemia cell in presence of thymidine; format: functional; set-up: scale not given: the % may be the effect or the level left
L1210 (1565) = experiment: cells; format: functional, cell-based; settings: Mus musculus
Description: Concentration required to inhibit 50% growth of L1210 /1565 mutant mouse leukemia cell line was determined

L1210 [2] = experiment: Concentration required to inhibit 50% growth of L1210 mouse leukemia cells was determined; format: functional, cell-based

IC50 (L1210 (R7A)) [nM]	IC50 (Thymidylate synthase) [nM]	IC50 (L1210 (1565)) [nM]	IC50 (L1210 [2]) [nM]	SMILES	Control (L1210 [1]) [%]
110	20	2200	27	C#CCN(Cc1ccc2nc(C)[nH]c(=O)c2c1)c1ccc(C(=O)N[C@@H](CCC(=O)O)C(=O)O)c(F)c1	97
3800	58	1200	290	C#CCN(Cc1ccc2nc[nH]c(=O)c2c1)c1ccc(C(=O)N[C@@H](CCC(=O)O)C(=O)O)c(F)c1	84
7500		4100	360	C#CCN(Cc1ccc2nc[nH]c(=O)c2c1)c1ccc(C(=O)N[C@@H](CCC(=O)O)C(=O)O)cc1	100

Continued, compound first:

SMILES	IC50 (L1210 (R7A)) [nM]	IC50 (Thymidylate synthase) [nM]	IC50 (L1210 (1565)) [nM]	IC50 (L1210 [2]) [nM]	Control (L1210 [1]) [%]
C#CCN(Cc1ccc2nc(CO)[nH]c(=O)c2c1)c1ccc(C(=O)N[C@@H](CCC(=O)O)C(=O)O)c(F)c1			6000	1900	82
C#CCN(Cc1ccc2nc(OC)[nH]c(=O)c2c1)c1ccc(C(=O)N[C@@H](CCC(=O)O)C(=O)O)c(F)c1		36	45000	1000	89
C#CCN(Cc1ccc2nc(OC)[nH]c(=O)c2c1)c1ccc(C(=O)N[C@@H](CCC(=O)O)C(=O)O)cc1	14000		160000	1900	100
C#CCN(Cc1ccc2[nH]c(N)nc(=O)c2c1)c1ccc(C(=O)N[C@@H](CCC(=O)O)C(=O)O)cc1	41000		3600	3500	96
C#CCN(Cc1ccc2nc(C)[nH]c(=O)c2c1)c1ccc(C(=O)N[C@@H](CCC(=O)O)C(=O)O)cc1	390		8300	85	100
C#CCN(Cc1ccc2nc(N)[nH]c(=O)c2c1)c1ccc(C(=O)N[C@@H](CCC(=O)O)C(=O)O)c(F)c1	6200	9	600	1100	84
